What was measured:
MDA-MB-231 TNBC cells = experiment: In vivo activity against breast cancer (MDA-MB-231 xenograft); set-up: species or system NOD/SCID mice; settings: day 35 after the treatment, from 150 mm^3 (control 600 mm^3)
Procedure: Compound 11 was further evaluated for its in vivo efficacy in treating breast cancer. MDA-MB-231 TNBC cell lines were used. Prior to injection into animals, the cancer cells were detected as free of Mycoplasma spp. Five million MDA-MB-231 cells in culture medium and matrigel (1:1, v/v) were injected subcutaneously into the left flank region of the NOD/SCID mice (n=8 animals per group). Treatments were initiated after randomization with inclusion of tumors at approximately 150 mm^3. The compound was prepared using 10% DMA: 40% PEG400:50% (1% CMC) (v/v/v).
Each group was administered orally twice a day for five days. Control animals were orally administered with vehicle only. Tumor growths were measured with an electronic caliper and volumes were calculated as L×W×W/2. Tumor size and animal body weight were measured twice a week after tumor cell inoculation.

MC-38 murine colon tumor = experiment: In vivo activity against colon tumor (MC38); set-up: species or system C57BL/6J mice; settings: day 17 after the treatment; 50 mg/kg orally twice a day for 5 days; control 2000 mm^3
Procedure: Compound 11 was evaluated for its in vivo efficacy in treating colon tumor. Female C57BL/6J mice between 8-10 weeks of age were used. Murine colon tumor MC38 cells were detected as free of Mycoplasma spp prior to injection into animals. MC38 cells at 10^5 cells per mouse in 100 μL culture medium were implanted subcutaneously into the left flank region of mice with a 25⅝-gauge needle (n=8 animals per group). […] Treatments were initiated after randomization with inclusion of tumors at approximately 50 mm^3.
Control animals were orally administered with vehicle only. Tumor growths were measured with an electronic caliper and volumes were calculated as L×W×W/2. Tumor size and animal body weight were measured twice a week after tumor cell inoculation. After the treatment, tumor volumes and body weight changes were measured.

MC38 murine colon tumor = experiment: Immune modulatory activity in MC38 murine colon tumor model; assay type: in vivo, C57BL/6J mice; settings: 50 mg/kg orally twice per day for five days
Procedure: Female C57BL/6J mice between 8-10 weeks of age were used. Murine colon tumor MC38 cells were detected as free of Mycoplasma spp prior to injection into animals. MC38 cells at 10^5 cells per mouse in 100 μL culture medium were implanted subcutaneously into the left flank region of mice with a 25⅝-gauge needle (n=5-6 animals per group). […] Treatments were initiated after randomization with inclusion of tumors at approximately 150 mm^3. Tumor growths were measured with an electronic caliper and volumes are calculated as L×W×W/2. Tumor size and animal body weight were measured twice a week after tumor cell inoculation. All experiments were conducted in accordance with the protocols approved by National Health Research Institutes' Institutional Animal Care and Use Committee.
Ten days after the treatment, the tumor cells and spleen cells in the mice were collected to study effect of this compound on the immune cells, i.e., tumor-associated macrophages and T cells. Briefly, tumor and spleen from vehicle control and Compound 11 were harvested and isolated into single cells. Single cell suspension were pre-incubated with mouse Fc receptor blocker before staining with appropriate antibody conjugate for Cd45, Cd3, Cd4, Cd8, F4/80, Cd11b, Cd86, AXL, MERTK and analyzed by flow cytometry to quantify the accumulation of immune cells including Cd4 (Cd3^+Cd4^+), Cd8 (Cd3^+Cd8^+), macrophages (Cd11b^+F4/80^+), tumor associated macrophage (M2, Cd11b^+F4/80^+Cd206^+), classical macrophage (M1, Cd11b^+F4/80+/Cd86^+) populations. For intracellular staining of analysis of tumor-associated macrophage marker Cd206 expression, cells were fixed by using Cytofix/Cytoperm™ kit (BD Biosciences, Franklin Lakes, New Jersey) after surface marker staining and then stain with anti-mouse Cd206 antibody conjugate. Live/dead fixable dye were used to exclude non-viable cells from the analyses.

## Cn1cc(-c2oc3ncnc(Oc4ccc(NC(=O)c5cccn(-c6ccc(F)cc6)c5=O)cc4)c3c2-c2cccc(N)c2)cn1 [Compound 11, N-(4-{[5-(3-aminophenyl)-6-(1-methyl-1H-pyrazol-4-yl)furo[2,3-d]pyrimidin-4-yl]oxy}phenyl)-1-(4-fluorophenyl)-2-oxo-1,2-dihydropyridine-3-carboxamide]
MDA-MB-231 TNBC cells; 25 mg/kg orally twice a day for five days
  tumor volume: 300 mm^3
MDA-MB-231 TNBC cells; 50 mg/kg orally twice a day for five days
  tumor volume: 220 mm^3
MC-38 murine colon tumor
  tumor volume: 300 mm^3
MC38 murine colon tumor; decreased from 7%
  expression of MERTK in CD4+ T cells (spleen): 3%
MC38 murine colon tumor; decreased from 10%
  level of M2-phenotype macrophages in the tumor cells: 5%
MC38 murine colon tumor; decreased from 13%
  expression of AXL in CD8+ T cells (spleen): 5%
MC38 murine colon tumor; decreased from 18%
  level of macrophages in the tumor cells: 13%
MC38 murine colon tumor; decreased from 32%
  expression of MERTK in CD8+ T cells (spleen): 20%
MC38 murine colon tumor; decreased from […]
  expression of AXL in CD4+ T cells (spleen): 0.7%
MC38 murine colon tumor; increased from 5%
  level of CD4+ T cells in the spleen cells: 10%
MC38 murine colon tumor; increased from 18%
  level of CD8+ T cells in the spleen cells: 28%
MC38 murine colon tumor; increased from 30%
  level of total T cells in the spleen cells: 43%
MC38 murine colon tumor; 10 days after treatment, from 200 mm^3 (vehicle 1000 mm^3)
  tumor size: 350 mm^3

— patent publication US20260070911A1, “INHIBITORS OF TAM RECEPTORS” (National Health Research Institutes, priority 2022, published 2026)
